# Source: patent publication US9180159B2, “Use of cell-permeable peptide inhibitors of the JNK signal transduction pathway for the treatment of chronic or non-chronic inflammatory digestive diseases” (Xigen Inflammation Ltd., priority 2008, dated 2015)
# Non-standard residues stand in square brackets, D forms with d.
# B1: JBD1-280: the GFP vector linked to the entire JBD (aa 1-280) (protein, UniProt Q9UQF2 1-280, looked up, fragment)
# chain: MAERESGGLGGGAASPPAASPFLGLHIASPPNFRLTHDISLEEFEDEDLSEITDECGISLQCKDTLSLRPPRAGLLSAGGGGAGSRLQAEMLQMDLIDATGDTPGAEDDEEDDDEERAARRPGAGPPKAESGQEPASRGQGQSQGQSQGPGSGDTYRPKRPTTLNLFPQVPRSQDTLNNNSLGKKHSWQDRVSRSSSPLKTGEQTPPHEHICLSDELPPQSGPAPTTDRGTSTDSPCRRSTATQMAPPGGPPAAPPGGRGHSHRDRIHYQADVRLEATEE
# modifications: fused to GFP
# How the values were obtained:
# [1] = tested on: cultured chick embryonic dorsal root ganglion, sympathetic, ciliary and motor neurons; conditions: Borasio et al. 1998; cited from earlier work
# [2] = mice treated with 1-methyl-4-phenyl tetrahydropyridine; cited from earlier work
# [3] = tested on: primary embryonic cultures and differentiated PC12 cells; conditions: at dosages that inhibit activation of JNKs; after trophic withdrawal; cited from earlier work
# [4] = tested on: TNBS-induced colitis; experiment: TNBS-induced colitis in mice (FIG. 13); type: in vivo; conditions: subcutaneous, 50 and 100 mg/kg
# Source text: JNK is activated in macrophages and lymphocytes of patients with inflammatory bowel disease, a response correlated with increased TNFa, IL-6 and IFNg production in lesions.
# [5] = tested on: TC-3 cells; experiment: IL-1 induced pancreatic beta-cell death in TC-3 cells treated with peptides; type: cell-based; conditions: one single addition 1 μM, IL-1 10 ng/ml every two days
# Procedure: Inhibition of IL-1 induced pancreatic beta-cell death by the D-TAT-IB1(s) peptide was analyzed. TC-3 cells were incubated as described above for 30 minutes with one single addition of the indicated peptides (1, μM), then IL-1 (10 ng/ml) was added.
# Apoptotic cells were then counted after two days of incubation with IL-1 by use of Propidium Iodide and Hoechst 33342 nuclear staining. A minimum of 1,000 cells were counted for each experiment.
# Long term inhibition of IL-1P induced cell-death by the D-TAT-IB1 peptide was also analyzed. TC-3 cells were incubated as above for 30 minutes with one single addition of the indicated peptides (1 μM), then IL-1 (10 ng/ml) was added, followed by addition of the cytokine every two days. Apoptotic cells were then counted after 15 days of incubation with IL-1 by use of propidium iodide and Hoechst 33342 nuclear staining. […] A minimum of 1.000 cells were counted for each experiment.
# [6] = tested on: recombinant JNK1, JNK2 and JNK3; experiment: Solid phase kinase assay, phosphorylation of c-Jun, ATF2 and Elk1 by recombinant JNKs; type: biochemical; conditions: GST-Jun (aa 1-73), 0-250 μM dosage study
# Procedure: The effects of the peptides on JNKs-mediated phosphorylation of their target transcription factors were investigated in vitro. Recombinant and non activated JNK1, JNK2 and JNK3 were produced using a TRANSCRIPTION AND TRANSLATION rabbit reticulocyte lysate kit (Promega) and used in solid phase kinase assays with c-Jun, ATF2 and Elk1, either alone or fused to glutathione-S-transferase (GST), as substrates. Dose response studies were performed wherein L-TAT or L-TAT-IB1(s) peptides (0-25 μM) were mixed with the recombinant JNK1, JNK2, or JNK3 kinases in reaction buffer (20 mM Tris-acetate, 1 mM EGTA, 10 mM p-nitrophenyl-phosphate (pNPP), 5 mM sodium pyrophosphate, 10 mM p-glycerophosphate, 1 mM dithiothreitol) for 20 minutes. The kinase reactions were then initiated by the addition of 10 mM MgCl2 and 5 pCi ^33P-dATP and 1 μg of either GST-Jun (aa 1-89), GST-AFT2 (aa 1-96) or GST-ELK1 (aa 307-428). GST-fusion proteins were purchased from Stratagene (La Jolla, Calif.).
# Ten μL of glutathione-agarose beads were also added to the mixture. Reaction products were then separated by SDS-PAGE on a denaturing 10% polyacrylamide gel. Gels were dried and subsequently exposed to X-ray films (Kodak). […] The ability of D-TAT, D-TAT-IB1(s) and L-TAT-IB1(s) peptides (0-250 μM dosage study) to inhibit GST-Jun (aa 1-73) phosphorylation by recombinant JNK1, JNK2, and JNK3 by were analyzed as described above. Overall, D-TAT-IB1(s) peptide decreased JNK-mediated phosphorylation of c-Jun, but at levels approximately 10-20 fold less efficiently than L-TAT-IB1(s).
# [7] = tested on: Primary cultured macrophages; experiment: Incorporation of XG-102 into primary cultured macrophages, detected with a specific antibody; type: cell-based; conditions: incubated with peptide and extensively washed
# Procedure: FIG. 8 Primary cultured macrophages were incubated with XG-102 (SEQ ID NO: 11) and extensively washed.
# [8] = tested on: Jurkat cells; experiment: PMA & ionomycin-induced cytokine production in Jurkat cells; type: cell-based
# Source text: (§1) XG-102 (SEQ ID NO:11) inhibits cytokine release in both myeloid and lymphoid cell lines, reducing LPS-induced TNFa, IL-6 and MCP-1 release in THP-1 cells (Panels A-C) and PMA & ionomycin-induced IFNg, IL-6 and IL-2 production in Jurkat cells (Panels D-F).
# [9] = tested on: TC-3 cell cultures; experiment: Cellular import and intracellular persistence of fluorescein-labeled peptides in TC-3 cells; type: cell-based; conditions: 1 μM
# Procedure: The ability of the L- and D-enantiomeric forms of TAT and TAT-IB1(s) peptides (“TAT-IB peptides”) to enter cells was evaluated. L-TAT, D-TAT, L-TAT-IB1(s), and D-TAT-IB1(s) peptides [SEQ ID NOs: 5, 6, 9 and 12, respectively] were labeled by N-terminal addition of a glycine residue conjugated to fluorescein. Labeled peptides (1 μM) were added to TC-3 cell cultures, which were maintained as described in Example 3. At predetermined times cells were washed with PBS and fixed for five minutes in ice-cold methanol-acetone (1:1) before being examined under a fluorescence microscope. Fluorescein-labeled BSA (1 μM, 12 moles/mole BSA) was used as a control.
# Little to no signal was present at 48 hours.
# [10] = tested on: THP-1 cells; experiment: LPS-induced cytokine and chemokine release in THP-1 cells; type: cell-based
# Source text: as §1
# [11] = tested on: murine macrophages; experiment: LPS-induced cytokine release in murine macrophages; type: cell-based
# [12] = tested on: murine T cells; experiment: PMA & ionomycin-induced cytokine production in murine T cells; type: cell-based
# [13] = tested on: primary lymphoid and myeloid cells; experiment: Cytotoxicity in primary cells (FIG. 12 Panel F); type: cell-based, murine
# [14] = tested on: TNBS-induced colitis; experiment: TNBS-induced colitis (IBD study) in BALB/c mice, Example 12; type: in vivo
# Procedure: b) Constitution of test groups and dose levels • The table below lists the experimental groups comprising the study.
# c) Test Procedures • Colitis was induced by administration of TNBS […], as a single or repeated daily doses (see above).
# d) Observations and Examinations • i) Clinical signs • Throughout the duration of the above experiment, careful clinical examinations were carried out and recorded. Observations included changes external appearance, e.g. of the skin, fur, eyes, mucous membranes, occurrence of secretions and excretions (e.g. diarrhea), and autonomic activity. Changes in gait, posture and response to handling, as well as the presence of bizarre behavior, tremors, convulsions, sleep and coma were also noted. • ii) Body weights • Determination of individual body weight of animals was made on a daily basis. • iii) Clinical assessment of colitis • Body weight, stool consistency and bleeding per rectum were all recorded daily and served as the parameters of disease severity score:
# • iv) Gross pathology of the colon • On the last day of the experiment, animals were euthanized and the colon was removed for gross pathology evaluation according to the following score: […]
# [15] = tested on: transient global ischemia; conditions: Carboni et al. 2004; cited from earlier work
# [16] = tested on: Insulin producing TC-3 cells; conditions: previously shown (Ammendrup et al.); cited from earlier work
molecule,measurement,setting,value
CCSCc1ccc2c(c1)c1c3c(c4c5cc(CSCC)ccc5n5c4c1n2[C@H]1C[C@](O)(C(=O)OC)[C@]5(C)O1)CNC3=O [CEP-1347],long term-survival of neurons,[1],promote long term-survival
same,neuronal survival,[2],promotes neuronal survival
same,neuronal survival,[3],promotes neuronal survival
NH2-DQSRPVQPFLNLTTPRKPRPPRRRQRRKKRG-COOH (H-[dD][dQ][dS][dR][dP][dV][dQ][dP][dF][dL][dN][dL][dT][dT][dP][dR][dK][dP][dR][dP][dP][dR][dR][dR][dQ][dR][dR][dK][dK][dR]G-OH) [XG-102],DAI,[4],diminishing
same,protection from TNBS-induced colitis,[4],protects mice from TNBS-induced colitis
same,rectal bleeding,[4],diminishing
same,weight loss,[4],diminishing
same,"long term protection from IL-1 induced cell-death, 15 days",[5],able to confer long term (15 day) protection
same,"decrease of JNK-mediated phosphorylation of c-Jun, fold less efficient than L-TAT-IB1(s)",[6],10-20 fold
same,incorporation into primary macrophages,[7],strongly incorporated
same,PMA & ionomycin-induced IFNg production,[8],reducing
same,PMA & ionomycin-induced IL-2 production,[8],reducing
same,PMA & ionomycin-induced IL-6 production,[8],reducing
same,entry into cells,[9],efficiently and rapidly (less than five minutes) entered cells
same,LPS-induced IL-6 release,[10],reducing
same,LPS-induced MCP-1 release,[10],reducing
same,LPS-induced TNFa release,[10],reducing
same,LPS-induced IL-6 release,[11],reducing
same,LPS-induced Rantes release,[11],reducing
same,LPS-induced TNFa release,[11],reducing
same,PMA & ionomycin-induced IFNg production,[12],reducing
same,PMA & ionomycin-induced TNFa production,[12],reducing
same,cytotoxicity at concentrations inhibiting cytokine release,[13],non-cytotoxic concentrations
same,clinical signs,"[14]; 0.01-1000 μg/kg SC or PO, single or daily for 7 days",No abnormalities were observed
same,disease recovery (conclusion),[14]; SC or PO,active in enhancing diseases recovery
same,clinical score,"[14]; XG-102 any dose, route or schedule, Sulfasalazine 10 mg/kg PO daily",an effect equivalent to or better than the one observed with the commonly used reference drug sulfasalazine
same,body weights (TNBS induced weight loss),"[14]; mouse, in vivo",either prevented the weight loss or ameliorated the symptoms and supported recovery
same,mortality rate,[14]; whole study,No mortality was recorded
N#CC(c1ccnc(NCCc2cccnc2)n1)c1nc2ccccc2s1 (stereo not drawn) [AS601245],delayed loss of hippocampal CA1 neurons,[15],significant protection
B1,block of IL1 induced pancreatic beta-cell apoptosis by transfection,[16],blocked
